In patent US20070259327A1, “Cryopreservation medium and cryopreservation method for tissues and cells” (BioVerde. Inc., priority 2006, published 2007):

What was measured:
Type in all cases: cell-based, pigs
Islets [1] = assay: Islet recovery rate after cryopreservation with polyphenol pre-incubation; conditions: for islet recovery rate following cryopreservation: 2 hours incubation before freezing, 4 weeks in liquid nitrogen; for islet recovery rate after 48 hours of postcryopreservation tissue culture: 48 hours culture after thawing
Method: (§1) Islets were isolated from over two years old pigs (n=3). After overnight culture, a known number of islets were incubated for 2 hours in culture medium supplemented with polyphenol (epigallocatechin-gallate (EGCg) with more than 98% purity) at concentrations of 0 (control), 30, 60, 120 ug/ml. Islets were suspended in the same volume of cryopreservation solution containing 12% hydroxyethyl starch (HES) and 10% dimethyl sulfoxide (DMSO) with 8% […] (FBS), and then cryopreserved using a program freezing system^3. After 4 weeks storage in liquid nitrogen, islets were rapidly thawed in a hot water bath. We assessed the results on recovery rate (islet yield after thawing/islet yield before freezing) following cryopreservation and after 48 hours of postcryopreservation tissue culture, viability and functionality.

Islets [2] = assay: Functionality of post-cryopreservation islets (stimulation index, insulin secretion high/low glucose); conditions: ratio of insulin secretion high vs low glucose medium
Method: as §1, with “functionality. […] The stimulation index represents a ratio of insulin secretion between high-concentration glucose culture medium and low-concentration glucose culture medium.” for “functionality.”

Islets [3] = assay: Viability of post-cryopreservation islets assessed using AO/PI; conditions: for viability assessed using AO/PI: post-cryopreservation
Method: as §1

O=C(O[C@@H]1Cc2c(O)cc(O)cc2O[C@@H]1c1cc(O)c(O)c(O)c1)c1cc(O)c(O)c(O)c1 [polyphenol, epigallocatechin-gallate]
islet recovery rate following cryopreservation (Islets [1]; 30 ug/ml polyphenol): 66.5±3.3% | islet recovery rate after 48 hours of postcryopreservation tissue culture (Islets [1]; 30 ug/ml polyphenol): 45.3±0.3% | islet recovery rate following cryopreservation (Islets [1]; 60 ug/ml polyphenol): 76.9±5.2% | islet recovery rate after 48 hours of postcryopreservation tissue culture (Islets [1]; 60 ug/ml polyphenol): 68.0±3.0% | islet recovery rate following cryopreservation (Islets [1]; 120 ug/ml polyphenol): 74.5±2.9% | islet recovery rate after 48 hours of postcryopreservation tissue culture (Islets [1]; 120 ug/ml polyphenol): 54.6±3.3% | functionality indicated by stimulation index (Islets [2]; 30 ug/ml polyphenol): 1.4±0.2 | functionality indicated by stimulation index (Islets [2]; 60 ug/ml polyphenol): 1.4±0.3 | functionality indicated by stimulation index (Islets [2]; 120 ug/ml polyphenol): 0.9±0.3 | viability assessed using AO/PI (Islets [3]; 30 ug/ml polyphenol): 83.1±1.2 | viability assessed using AO/PI (Islets [3]; 60 ug/ml polyphenol): 85.9±2.5 | viability assessed using AO/PI (Islets [3]; 120 ug/ml polyphenol): 84.4±1.0 | viability following cryopreservation, compared with control (Islets [3]; polyphenol group vs control group, p<0.01): significantly higher than the control group
